Reference: patent US20090274662A1, “Methods And Kits For The Treatment Of Inflammatory Bowel Disorder Conditions” (priority 2008, published 2009)

Details: male, human, in vivo
Text: The patient is prescribed a pharmaceutical composition to be taken twice each week. Each unit dose of the pharmaceutical composition comprises 7200 milligrams of delayed-release mesalamine.

Compound: Nc1ccc(O)c(C(=O)O)c1 [delayed-release mesalamine, 5-amino-2-hydroxybenzoic acid]
- amount of delayed-release mesalamine absorbed into the mucosa and colonic wall: equivalent to that of 2400 milligrams mesalamine taken once-daily
